Key:
TWNT-4 cells = test: MMP-1, TIMP-1, and collagenase assay; format: cell-based, human
Protocol: (§1) A. In vitro Cell culture: HSCs are isolated from the liver of male Wistar rats by sequential in situ perfusion with collagenase and digestion with pronase, followed by centrifugation in a double-layered (17%/11.5%) metrizamide solution (Sigma. Chemical, St. Louis, Mo.), as described in Kato, et al, J. Hepatol (1999) 31:91-99. HSCs are cultured in Dulbecco's modified Eagle's medium (DMEM) with 10% fetal calf serum (FCS). Experiments are performed on cells between the third and fourth serial passages. To measure […] matrix metalloproteinase (MMP-1) and tissue inhibitor of matrix metalloproteinase (TIMP-1), TWNT-4 cells which is a human cell line derived from HSCs as produced according to Shibata, et al, Cell Transplant (2003) 12:499-507 is used for evaluating the effects of Fasudil on MMP-1 and TIMP-1. TWNT-4 cells are cultured in DMEM with 10% FCS as reported previously (Id). NIM811 (Novartis Pharma AG, Basel, Switzerland) is dissolved in DMEM and added to cultures. Cell viability of HSCs is more than 90% under serum-free conditions for 24 h in the presence of 2 μM NIM811.
MMP-1, TIMP-1, and collagenase assay: Cultured TWNT-4 cells are incubated in serum-free medium in the presence or absence of NIM811 for 24 h. MMP-1 and TIMP-1 production are determined in culture media by ELISA with a Biotrak ELISA system for human MMP-1 (Amersham Biosciences, Piscataway, N.J., USA) and an hTIMP-1 kit (Daiichi Fine Chemical Co. Ltd., Toyama, Japan), respectively following procedures described in Fukushima, et al, Liver Int (2005) 25:829-838. Active MMP-1 and pro-MMP-1 in culture media are determined with a MMP-1 Biotrak Activity Assay System (Amersham).

Cell viability of HSCs = format: cell-based; conditions: male, Wistar, rat, primary hepatic stellate cells (HSCs), 2 μM NIM811, serum-free conditions
Protocol: as §1

MAPKs Signaling Pathways = test: Western blot analysis for phospho- and nonphospho-MAPKs; format: cell-based, human
Protocol: Western blot analysis for phospho- and nonphospho-MAPKs: Western blot analysis is performed as described in Uchimura, et al, Hepatology (2001) 33:91099. HSCs are starved for 24 h, then treated with or without NIM811 for 2 h. Whole cell lysates containing 1×10^7 TWNT-4 cells are prepared in 100 μl SDS-PAGE sample buffer. Protein lysates are subjected to 12% SDS-PAGE, transferred to a polyvinylidene difluoride membrane (Millipore, Bedford, Mass.), and probed with the primary antibody for ERK1/2 MAPK, phospho-ERK1/2 MAPK (Thr202/Tyr204), JNK, phospho-JNK (Thr183/Tyr185), p38 MAPK, or phospho-p38 MAPK (Thr180/Tyr182) (New England Biolabs, Beverly, Mass.). Antibody binding is detected using peroxidase linked anti-rabbit IgG (Amersham Pharmacia Biotech, Piscataway, N.J.) as the secondary antibody. The blots are developed using ECL-plus (Amersham Pharmacia Biotech, Piscataway, N.J.) to visualize the antibodies. The levels of ERK1/2 MAPK, phosphorylated-ERK1/2 MAPK, JNK, phosphorylated-JNK, p38 MAPK, and phosphorylated-p38 MAPK are quantitated by densitometry using an optical scanner system. For comparison, the ratios of phosphorylated ERK1/2, JNK, and p38 MAPK to nonphosphorylated ERK1/2, JNK, and p38 MAPK, respectively, are calculated from the densitometric data.

[1] = test system: cultured mouse hepatocytes; conditions: Kon et al, Hepatology (2004); cited from earlier work
cyclophilin A = cyclophilin A (Homo sapiens, UniProt P62937); conditions: Waldmeier et al, Mol Pharmacol (2002); cited from earlier work
Sequence of cyclophilin A (P62937 whole entry, species assumed): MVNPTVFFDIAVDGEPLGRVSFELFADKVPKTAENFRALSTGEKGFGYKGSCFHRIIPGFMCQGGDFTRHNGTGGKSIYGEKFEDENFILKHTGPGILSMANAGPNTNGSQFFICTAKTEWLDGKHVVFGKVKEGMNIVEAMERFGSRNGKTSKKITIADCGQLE

## C/C=C/C[C@@H](C)[C@@H](O)[C@H]1C(=O)N[C@@H](CC)C(=O)N(C)CC(=O)N(C)[C@@H]([C@@H](C)CC)C(=O)N[C@@H](C(C)C)C(=O)N(C)[C@@H](CC(C)C)C(=O)N[C@@H](C)C(=O)N[C@H](C)C(=O)N(C)[C@@H](CC(C)C)C(=O)N(C)[C@@H](CC(C)C)C(=O)N(C)[C@@H](C(C)C)C(=O)N1C [NIM811]
TWNT-4 cells; 0.5 μM
  increase in collagenase activity (active MMP-1): roughly 2 fold
TWNT-4 cells; 2.0 μM
  TIMP-1 production: does not significantly reduce TIMP-1 production
TWNT-4 cells; increasing concentrations
  collagenase activity (active MMP-1) and pro-MMP-1 levels: concentration-dependent increase
Cell viability of HSCs
  viability at 24 h, 2 µM: > 90%
MAPKs Signaling Pathways
  phosphorylation of ERK1/2: does not suppress ERK1/2
MAPKs Signaling Pathways; 0.5 μM
  enhancement of phosphorylation of JNK: ~3.6 fold
  enhancement of phosphorylation of p38 MAPK: ~2.3 fold
[1]
  acetaminophen-induced necrosis and apoptosis: prevented acetaminophen-induced necrosis and apoptosis
Cyclophilin A
  binding to cyclophilin A: does not bind to cyclophilin A
